Assay results as given in ChEMBL document CHEMBL1152529, “Synthesis, antifungal, haemolytic and cytotoxic activities of a series of bis(alkylpyridinium)alkanes” (Bioorg Med Chem, 2009).
≈ marks a conversion by molar mass, not a printed value. Calls of active or inactive are those of the source. No cut-off for these calls is given here.

Legend:
[1] = Selectivity index, ratio of IC50 for MDCK cells to MIC for Cryptococcus neoformans ATCC 90112; assay type: functional
[2] = Selectivity index, ratio of HC50 for human erythrocytes to MIC for Candida albicans ATCC 10231; assay type: functional
[3] = Selectivity index, ratio of IC50 for human A549 cells to MIC for Cryptococcus neoformans ATCC 90112; assay type: functional
[4] = molecular target: Phospholipase A2, major isoenzyme (Sus scrofa, UniProt P00592); experiment: Inhibition of porcine pancreatic PLA2 after 1 hr by radiometric method
[5] = system: MDCK; experiment: Cytotoxicity against MDCK cells after 3 hrs by MTS assay; assay type: cell-based; conditions: Canis lupus familiaris
[6] = system: Cryptococcus neoformans; experiment: Antifungal activity against Cryptococcus neoformans ATCC 90112 after 48 to 72 hrs by broth microdilution method; assay type: functional
[7] = system: Curvularia australiensis; experiment: Antifungal activity against Bipolaris australiensis 03-201798 after 48 to 72 hrs by broth microdilution method; assay type: functional
[8] = system: A549; experiment: Cytotoxicity against human A549 cells after 3 hrs by MTS assay; assay type: cell-based; conditions: A549, 3 h
[9] = system: Scedosporium apiospermum; experiment: Antifungal activity against Scedosporium apiospermum 05-203100 after 48 to 72 hrs by broth microdilution method; assay type: functional
[10] = Selectivity index, ratio of IC50 for human A549 cells to MIC for Candida albicans ATCC 10231; assay type: functional
[11] = Selectivity index, ratio of HC50 for human erythrocytes to MIC for Cryptococcus neoformans ATCC 90112; assay type: functional
[12] = system: Nakaseomyces glabratus; experiment: Antifungal activity against Candida glabrata 04-202345 after 48 to 72 hrs by broth microdilution method; assay type: functional
[13] = Cytotoxicity against human erythrocytes assessed as hemolysis after 1 hr; assay type: cell-based, Erythrocyte
[14] = system: Rhizopus arrhizus; experiment: Antifungal activity against Rhizopus oryzae 05-203111 after 48 to 72 hrs by broth microdilution method; assay type: functional
[15] = system: Aspergillus flavus; experiment: Antifungal activity against Aspergillus flavus ATCC 204304 after 48 to 72 hrs by broth microdilution method; assay type: functional
[16] = system: Exophiala spinifera; experiment: Antifungal activity against Exophiala spinifera 03-200803 after 48 to 72 hrs by broth microdilution method; assay type: functional
[17] = system: Candida albicans; experiment: Antifungal activity against Candida albicans ATCC 10231 after 48 to 72 hrs by broth microdilution method; assay type: functional
[18] = system: Aspergillus fumigatus; experiment: Antifungal activity against Aspergillus fumigatus ATCC 204305 after 48 to 72 hrs by broth microdilution method; assay type: functional
[19] = Inhibition of phospholipid fatty acyl chain hydrolysis activity of Cryptococcus neoformans var. grubii H99 PLB assessed as formation of radiolabeled free fatty acid at pH 4 by radiometric assay
[20] = system: Aspergillus terreus; experiment: Antifungal activity against Aspergillus terreus 05-202844 after 48 to 72 hrs by broth microdilution method; assay type: functional
[21] = system: Pichia kudriavzevii; experiment: Antifungal activity against Candida krusei ATCC 6258 after 48 to 72 hrs by broth microdilution method; assay type: functional
[22] = Selectivity index, ratio of IC50 for MDCK cells to MIC for Candida albicans ATCC 10231; assay type: functional
[23] = system: Lomentospora prolificans; experiment: Antifungal activity against Scedosporium prolificans 05-203060 after 48 to 72 hrs by broth microdilution method; assay type: functional
[24] = system: Candida parapsilosis; experiment: Antifungal activity against Candida parapsilosis ATCC 22019 after 48 to 72 hrs by broth microdilution method; assay type: functional; conditions: Lodderomyces parapsilosis
[25] = system: Cryptococcus neoformans var. grubii H99; experiment: Inhibition of lysophospholipase acyltransferase activity of Cryptococcus neoformans var. grubii H99 PLB assessed as formation of radiolabeled dipalmitoyl phosphatidylcholine at 0.25 to 250 uM at pH 4 by radiometric assay
[26] = system: Cryptococcus neoformans var. grubii H99; experiment: Inhibition of lysophospholipid fatty acyl chain hydrolysis activity of Cryptococcus neoformans var. grubii H99 PLB assessed as formation of radiolabeled free fatty acid at 0.25 to 250 uM at pH 4 by radiometric assay
[27] = Solubility at 50 uM; assay type: physicochemical
[28] = Cryptococcus neoformans, ATCC 90112
[29] = Cryptococcus neoformans, ATCC 90112, read-out: MIC
[30] = Candida albicans, ATCC 10231, read-out: MIC

Sequence of Phospholipase A2, major isoenzyme (P00592 whole entry): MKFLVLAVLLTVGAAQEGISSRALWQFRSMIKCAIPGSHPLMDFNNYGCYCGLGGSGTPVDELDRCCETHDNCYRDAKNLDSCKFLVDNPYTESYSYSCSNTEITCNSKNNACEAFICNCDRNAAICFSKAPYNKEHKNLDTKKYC

Compound: CCCCCc1cc[n+](CCCCCCCCCCCC[n+]2ccc(CCCCC)cc2)cc1.[Cl-].[Cl-]
- Selectivity Index [1]: >40
- Selectivity Index [2]: >100
- Selectivity Index [3]: >40
- IC50 [4]: > 250 µM
- IC50 [5]: 150 µM
- MIC [6]: 1.4 µM
- MFC [6, 28]: 1.4 µM
- MFC [7]: 11 µM
- MIC [7]: 11 µM
- IC50 [8]: 115 µM
- MFC [9]: 5.5 µM
- MIC [9]: 5.5 µM
- Selectivity Index [10]: >40
- Selectivity Index [11]: >100
- MFC [12]: 2.7 µM
- MIC [12]: 2.7 µM
- HC50 at 1 h [13]: > 350 µM
- MFC [14]: 11 µM
- MIC [14]: 2.7 µM
- MFC [15]: 87.5 µM
- MIC [15]: 44 µM
- MFC [16]: 0.7 µM
- MIC [16]: 0.7 µM
- MIC [17]: 2.7 µM
- MFC ([17]; Candida albicans, ATCC 10231): 2.7 µM
- MFC [18]: 87.5 µM
- MIC [18]: 87.5 µM
- IC50 [19]: 104 µM
- MFC [20]: 22 µM
- MIC [20]: 11 µM
- MFC [21]: 22 µM
- MIC [21]: 11 µM
- Selectivity Index [22]: >40
- MFC [23]: 5.5 µM
- MIC [23]: 2.7 µM
- MFC [24]: 2.7 µM
- MIC [24]: 1.4 µM

Compound: CCCCC(CCCC)c1cc[n+](CCCCCCCCCCCC[n+]2ccc(C(CCCC)CCCC)cc2)cc1
- Activity [25]: inactive
- IC50 [4]: 53 µM
- IC50 [5]: 56 µM
- MIC [6, 29]: 1.4 µM
- IC50 [8]: 55 µM
- HC50 at 1 h [13]: 124 µM
- MIC [17, 30]: 1.4 µM
- Activity [26]: inactive
- IC50 [19]: 5 µM

Compound: CCCCCc1cc[n+](CCCCCCCCCCCC[n+]2ccc(CCCCC)c(CCCCC)c2)cc1CCCCC
- Activity [25]: inactive
- IC50 [4]: 52 µM
- IC50 [5]: 70 µM
- MFC [6, 28]: 1.4 µM
- MIC [6, 29]: 1.4 µM
- MFC [7]: 2.7 µM
- MIC [7]: 2.7 µM
- IC50 [8]: 45 µM
- MFC [9]: 5.5 µM
- MIC [9]: 5.5 µM
- MFC [12]: 1.4 µM
- MIC [12]: 1.4 µM
- HC50 at 1 h [13]: 17.5 µM
- MFC [14]: 2.7 µM
- MIC [14]: 2.7 µM
- MFC [15]: 22 µM
- MIC [15]: 11 µM
- MFC [16]: 2.7 µM
- MIC [16]: 2.7 µM
- MFC ([17]; Candida albicans, ATCC 10231): 2.7 µM
- MIC [17, 30]: 2.7 µM
- MFC [18]: 22 µM
- MIC [18]: 11 µM
- Activity [26]: inactive
- IC50 [19]: 4 µM
- MFC [20]: 2.7 µM
- MIC [20]: 1.4 µM
- MFC [21]: 2.7 µM
- MIC [21]: 2.7 µM
- MFC [23]: 5.5 µM
- MIC [23]: 2.7 µM
- MFC [24]: 2.7 µM
- MIC [24]: 2.7 µM

Compound: CC(C)CCc1cc[n+](CCCCCCCCCCCC[n+]2ccc(CCC(C)C)cc2)cc1
- Activity [25]: inactive
- IC50 [4]: 67 µM
- IC50 [5]: > 350 µM
- MIC [6, 29]: 2.7 µM
- IC50 [8]: > 350 µM
- HC50 at 1 h [13]: > 350 µM
- MIC [17, 30]: 5.5 µM
- Activity [26]: inactive
- IC50 [19]: 57 µM

Compound: C=CCCCc1cc[n+](CCCCCCCCCCCC[n+]2ccc(CCCC=C)cc2)cc1
- Activity [25]: inactive
- IC50 [4]: 56 µM
- IC50 [5]: > 350 µM
- MIC [6, 29]: 5.5 µM
- IC50 [8]: > 350 µM
- HC50 at 1 h [13]: > 350 µM
- MIC [17, 30]: 2.7 µM
- Activity [26]: inactive
- IC50 [19]: 47 µM

Compound: CC(C)CCCc1cc[n+](CCCCCCCCCCCC[n+]2ccc(CCCC(C)C)cc2)cc1
- Activity [25]: inactive
- IC50 [4]: > 250 µM
- IC50 [5]: 62 µM
- MIC [6, 29]: 2.7 µM
- IC50 [8]: 54 µM
- HC50 at 1 h [13]: 227 µM
- MIC [17, 30]: 2.7 µM
- Activity [26]: inactive
- IC50 [19]: 11 µM

Compound: CCCCCCc1cc[n+](CCCCCCCCCCCC[n+]2ccc(CCCCCC)cc2)cc1
- Activity [25]: inactive
- IC50 [4]: > 250 µM
- IC50 [5]: 61 µM
- MIC [6, 29]: 2.7 µM
- IC50 [8]: 48 µM
- HC50 at 1 h [13]: 129 µM
- MIC [17, 30]: 1.4 µM
- Activity [26]: inactive
- IC50 [19]: 6 µM

Compound: OCCCc1cc[n+](CCCCCCCCCCCC[n+]2ccc(CCCO)cc2)cc1
- Activity [25]: inactive
- IC50 [4]: > 250 µM
- IC50 [5]: > 350 µM
- MIC [6, 29]: 88 µM
- IC50 [8]: > 350 µM
- HC50 at 1 h [13]: > 350 µM
- MIC [17, 30]: 88 µM
- Activity [26]: inactive
- IC50 [19]: > 250 µM

Compound: C[C@@H]1[C@H](O)[C@@H](C)/C=C/C=C/C=C/C=C/C=C/C=C/C=C/[C@H](O[C@@H]2O[C@H](C)[C@@H](O)[C@H](N)[C@@H]2O)C[C@@H]2O[C@](O)(C[C@@H](O)C[C@@H](O)[C@H](O)CC[C@@H](O)C[C@@H](O)CC(=O)O[C@H]1C)C[C@H](O)[C@H]2C(=O)O [AMPHOTERICIN B]
- MIC [6, 29]: 0.54 µM (≈ 0.499 µg/mL)
- MIC [7]: 0.03 µM (≈ 0.0277 µg/mL)
- MIC [9]: 17 µM (≈ 15.7 µg/mL)
- MIC [12]: 1.1 µM (≈ 1.02 µg/mL)
- MIC [14]: 0.06 µM (≈ 0.0554 µg/mL)
- MIC [15]: 0.54 µM (≈ 0.499 µg/mL)
- MIC [16]: 0.27 µM (≈ 0.25 µg/mL)
- MIC [17, 30]: 0.54 µM (≈ 0.499 µg/mL)
- MIC [18]: 0.54 µM (≈ 0.499 µg/mL)
- MIC [20]: 1.1 µM (≈ 1.02 µg/mL)
- MIC [21]: 0.54 µM (≈ 0.499 µg/mL)
- MIC [23]: 4.3 µM (≈ 3.97 µg/mL)
- MIC [24]: 0.13 µM (≈ 0.12 µg/mL)

Compound: CN1CCC[C@H]1c1ccc[n+](CCCCCCCCCCCC[n+]2cccc([C@@H]3CCCN3C)c2)c1.[Br-].[Br-]
- solubility [27]: Insoluble
- MIC [6, 29]: > 50 µM
- MIC [17, 30]: > 50 µM
